Measurements as given in ChEMBL document CHEMBL4420072, “Method for screening anti-cancer compounds inhibiting function of TM4SF5 and anti-cancer composition containing chalcone compounds” (2013).
≈ marks a conversion by molar mass, not a printed value. Blank lines part the entries; values can stand above or below the compound they belong to. Calls of active or inactive are those of the source. The calls are words filed in the database; no cut-off is given here.

Tests used:
HCT-15 = assay: Cytotoxicity against human HCT15 cells assessed as reduction in cell viability by SRB assay; type: functional; conditions: read-out: ED50 (the source's name)
A549 = assay: Cytotoxicity against human A549 cells assessed as reduction in cell viability by SRB assay; type: functional; conditions: read-out: ED50 (the source's name)
[1] = molecular target: T1, Transmembrane 4 L6 family member 5 (Homo sapiens) (UniProt O14894); assay: Activation of TM4SF5 in human SNU449Tp cells in monolayer arrangement assessed as stimulation of cell growth at 20 uM incubated for 24 hrs by optical microscopy; type: cell-based
T1 sequence (whole entry): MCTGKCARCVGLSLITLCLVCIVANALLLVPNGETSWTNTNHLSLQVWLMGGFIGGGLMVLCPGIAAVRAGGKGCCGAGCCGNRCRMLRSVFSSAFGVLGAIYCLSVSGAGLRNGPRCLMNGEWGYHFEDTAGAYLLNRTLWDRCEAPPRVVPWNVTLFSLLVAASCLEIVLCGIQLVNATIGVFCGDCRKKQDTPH

[2] = molecular target: T1, Transmembrane 4 L6 family member 5 (Homo sapiens); assay: Activation of TM4SF5 in human SNU449Tp cells in multilayer arrangement assessed as stimulation of cell growth at 20 uM incubated for 24 hrs by optical microscopy; type: cell-based
[3] = molecular target: T1, Transmembrane 4 L6 family member 5 (Homo sapiens); assay: Activation of TM4SF5 in human SNU449Tp cells in monolayer arrangement assessed as effect on cell morphology at 20 uM incubated for 24 hrs by optical microscopy; type: cell-based
[4] = molecular target: T1, Transmembrane 4 L6 family member 5 (Homo sapiens); assay: Inhibition of TM4SF5 in human SNU449Tp cells assessed as effect on cell morphology at 20 uM incubated for 24 hrs by optical microscopy; type: cell-based
[5] = molecular target: T1, Transmembrane 4 L6 family member 5 (Homo sapiens); assay: Inhibition of TM4SF5 in human SNU449Tp cells assessed as inhibition of S-phase progression at 20 uM followed by BrdU addition and incubated for 24 hrs by immunofluorescent staining; type: cell-based
[6] = molecular target: T1, Transmembrane 4 L6 family member 5 (Homo sapiens); assay: Inhibition of TM4SF5 in human SNU449Tp cells assessed as restoration of cell-cell contact at 20 uM by E-cadherin and beta-catenin detection based immunofluorescent staining
[7] = Growth inhibition of TM4SF5 deficient human SNU449Cp cells assessed as reduction in cell number at 5 to 40 uM incubated up to 2 days; conditions: 48 h
[8] = molecular target: T1, Transmembrane 4 L6 family member 5 (Homo sapiens); assay: Inhibition of TM4SF5 in human SNU449Tp cells assessed as reduction in p27Kip1 expression by Western blotting analysis; type: cell-based
[9] = molecular target: T1, Transmembrane 4 L6 family member 5 (Homo sapiens); assay: Inhibition of TM4SF5 in human SNU449Tp cells assessed as reduction in pS10 p27Kip1 expression by Western blotting analysis; type: cell-based
[10] = molecular target: T1, Transmembrane 4 L6 family member 5 (Homo sapiens); assay: Inhibition of TM4SF5 in human SNU449Tp cells assessed as reduction in pY77 FAK expression by Western blotting analysis; type: cell-based
[11] = molecular target: T1, Transmembrane 4 L6 family member 5 (Homo sapiens); assay: Inhibition of TM4SF5 in human SNU449Tp cells assessed as reduction in alpha-SMA expression by Western blotting analysis; type: cell-based
[12] = molecular target: T1, Transmembrane 4 L6 family member 5 (Homo sapiens); assay: Inhibition of TM4SF5 in human SNU449Tp cells assessed as reduction in cytosolic p27Kip1 expression by immunofluorescent staining; type: cell-based
[13] = molecular target: T1, Transmembrane 4 L6 family member 5 (Homo sapiens); assay: Inhibition of TM4SF5 in human SNU449Tp cells assessed as restoration of reduced RhoA activity; type: cell-based
[14] = molecular target: T1, Transmembrane 4 L6 family member 5 (Homo sapiens); assay: Inhibition of TM4SF5 in human SNU449Tp cells assessed as induction of return of elongated cell shape to polygonal shape by DAPI staining based assay
[15] = molecular target: T1, Transmembrane 4 L6 family member 5 (Homo sapiens); assay: Inhibition of TM4SF5 in human SNU449Tp cells assessed as increase in sensitivity of N-linked glycosylated region of TM4SF5 to PNGase F; type: cell-based
SNU-398 = assay: Growth inhibition of TM4SF5 deficient human SNU398 cells assessed as reduction in cell number at 1 to 20 ug/ml incubated up to 3 days; type: cell-based; conditions: snu-398, 72 h
[16] = molecular target: T1, Transmembrane 4 L6 family member 5 (Homo sapiens); assay: Inhibition of TM4SF5 in human SNU368 cells assessed as reduction in cell number at 1 to 20 ug/ml incubated up to 3 days; type: cell-based
[17] = molecular target: T1, Transmembrane 4 L6 family member 5 (Homo sapiens); assay: Inhibition of TM4SF5 in human HepG2 cells assessed as reduction in cell number at 1 to 20 ug/ml incubated up to 3 days; type: cell-based
[18] = molecular target: T1, Transmembrane 4 L6 family member 5 (Homo sapiens); assay: Inhibition of TM4SF5 in human HuH7 cells assessed as reduction in cell number at 1 to 20 ug/ml incubated up to 3 days; type: cell-based
[19] = molecular target: T1, Transmembrane 4 L6 family member 5 (Homo sapiens); assay: Inhibition of TM4SF5 in human SNU449Tp cells assessed as reduction in cell migration at 20 uM incubated for 18 hrs by Transwell chamber based assay
[20] = molecular target: T1, Transmembrane 4 L6 family member 5 (Homo sapiens); assay: Inhibition of TM4SF5 in human SNU449Tp cells assessed as reduction in cell invasion into collagen gel matrix at 20 uM incubated for 18 hrs; type: cell-based
[21] = molecular target: T1, Transmembrane 4 L6 family member 5 (Homo sapiens); assay: Inhibition of TM4SF5 in human SNU449Tp cells assessed as reduction in cell invasion into Matrigel gel matrix at 20 uM incubated for 24 hrs; type: cell-based
[22] = molecular target: T1, Transmembrane 4 L6 family member 5 (Homo sapiens); assay: Inhibition of TM4SF5 in human SNU449Tp cells assessed as reduction in MMP2 activity gel at 20 uM incubated for 24 hrs followed by medium exchange with serum-free medium and further incubated for 18 hrs by zymography; type: cell-based
[23] = molecular target: T1, Transmembrane 4 L6 family member 5 (Homo sapiens); assay: Inhibition of TM4SF5 in human SNU449Tp cells assessed as reduction in MMP9 activity gel at 20 uM incubated for 24 hrs followed by medium exchange with serum-free medium and further incubated for 18 hrs by zymography; type: cell-based
PC-3 = assay: Cytotoxicity against human PC3 cells assessed as reduction in cell viability by SRB assay; type: functional; conditions: read-out: ED50 (the source's name)

Structure (SMILES): Cc1ccc(S(=O)(=O)Oc2ccc(C(=O)/C=C/c3ccc(O)cc3O)cc2)cc1
EC50 (HCT-15): 8 µg/mL (≈ 19.5 µM)
EC50 (A549): 10 µg/mL (≈ 24.4 µM)

Activity [1]: Active
Activity [2]: inactive
Activity [3]: Active
cell morphology effect (active/not active) [4]: inactive
Structure (SMILES): O=C(/C=C/c1ccc(O)cc1)c1ccc(O)cc1

inhibition [5]: Active
inhibition [6]: Active
inhibition [8]: Active
inhibition [9]: Active
inhibition [10]: Active
inhibition [11]: Active
inhibition [12]: Active
inhibition [13]: Active
inhibition [14]: Active
inhibition [15]: Active
inhibition [16]: Active
inhibition [17]: Active
inhibition [18]: Active
inhibition [19]: Active
inhibition [20]: Active
inhibition [21]: Active
inhibition [22]: Active
inhibition [23]: Active
cell morphology effect (active/not active) [4]: Active
Structure (SMILES): Cc1ccc(S(=O)(=O)Nc2ccc(C(=O)/C=C/c3ccc(O)cc3)cc2)cc1
growth inhibition (GI) [7]: Non-Toxic
growth inhibition (GI) (SNU-398): Non-Toxic

Activity [1]: Active
Activity [2]: inactive
Activity [3]: Active
cell morphology effect (active/not active) [4]: inactive
Structure (SMILES): COc1ccc(C(=O)/C=C/c2ccc(O)cc2)cc1

Structure (SMILES): O=C(/C=C/c1ccc(O)c(O)c1)c1ccc(OS(=O)(=O)c2cccc(F)c2)cc1
EC50 (HCT-15): 7 µg/mL (≈ 16.9 µM)
EC50 (PC-3): 8 µg/mL (≈ 19.3 µM)

Activity [1]: Active
Activity [2]: inactive
Activity [3]: Active
cell morphology effect (active/not active) [4]: inactive
Structure (SMILES): Nc1ccc(C(=O)/C=C/c2ccc(O)cc2)cc1
